Reference: publication PMC4742234, “Screening of Drug Metabolizing Enzymes for the Ginsenoside Compound K In Vitro: An Efficient Anti-Cancer Substance Originating from Panax Ginseng” (PLoS ONE, 2016)
“And” between values parts separate entries of the source, which are not always exact repeats. Identical values can stand only once. “Also recorded” adds a separate entry of the source.

How the values were obtained:
Assay type in all cases: in vitro ADME
CYP3A4 = CYP3A4 (Homo sapiens, UniProt P08684); test: Effect of specific inhibitor ketoconazole on CK metabolism in HLMs; design: tissue Cypex Ltd. (U.K.); host or cells: pooled human liver microsomes; conditions: CK 50 μM, in the presence of ketoconazole 1 μM
Method: (§1) The method was conducted according to our previous study with some modifications. The CYP isoform-specific probe reactions used were phenacetin O-deethylation (for CYP1A2), coumarin 7-hydroxylation (for CYP2A6), tolbutamide 4-hydroxylation (for CYP2C9), metoprolol α-hydroxylation (for CYP2D6), chlorzoxazone 6-hydroxylation (for CYP2E1),S-Mephenytoin 4-hydroxylation (for CYP2C19), and midazolam 1-hydroxylation (for CYP3A4). The kinetic study of CK was conducted with HLMs. A 0.2 mL incubation mixture that consisted of CK (as a substrate), the HLMs (0.5 mg/mL) or CYP isoforms (10 pmol), and 0.1 M sodium phosphate buffer (pH 7.4) was pre-warmed for 5 min at 37°C. The reaction was initiated by the addition of 1 mg/mL triphosphopyridine nucleotide (NADPH). […]
(§2) To screen the specific CYP isoform responsible for the CK metabolism, we determined the inhibitory effect of specific inhibitors on the metabolism of CK in the HLMs as described in detail previously. […] The inhibitory effects of the above specific inhibitors on the metabolic clearance rate of CK were evaluated separately to screen the CYP isoforms responsible for the CK metabolism. The relative activity of the CYP isoforms was calculated by dividing the peak area of CK when incubated with the inhibitor by that of CK from the negative controls. […]

CYP2C9 = CYP2C9 (Homo sapiens, UniProt P11712); test: Metabolic clearance rate of CK with recombinant CYP2C9 under sulfaphenazole; design: purchased Cypex Ltd. (U.K.); conditions: recombinant CYP2C9, CK 50 μM, sulfaphenazole 1 μM
Method: as §1, §2

CYP2D6 = target: T1, CYP2D6 (Homo sapiens, UniProt P10635); test: Inhibition of CYP2D6 (metoprolol α-hydroxylation) by CK in HLMs
T1 construct: tissue Cypex Ltd. (U.K.); host or cells: pooled human liver microsomes
Method: The method was conducted according to our previous study with some modifications. The CYP isoform-specific probe reactions used were phenacetin O-deethylation (for CYP1A2), coumarin 7-hydroxylation (for CYP2A6), tolbutamide 4-hydroxylation (for CYP2C9), metoprolol α-hydroxylation (for CYP2D6), chlorzoxazone 6-hydroxylation (for CYP2E1),S-Mephenytoin 4-hydroxylation (for CYP2C19), and midazolam 1-hydroxylation (for CYP3A4). The kinetic study of CK was conducted with HLMs. A 0.2 mL incubation mixture that consisted of CK (as a substrate), the HLMs (0.5 mg/mL) or CYP isoforms (10 pmol), and 0.1 M sodium phosphate buffer (pH 7.4) was pre-warmed for 5 min at 37°C. The reaction was initiated by the addition of 1 mg/mL triphosphopyridine nucleotide (NADPH). All the reagents were dissolved in methanol, and the final solvent concentration in all incubations (including the controls) was 1%. The final incubations were performed in a shaking water bath (37°C) for 30 min. The reactions were stopped by adding 0.2 mL ice-cold acetonitrile, which contains irbesartan (114.9 ng/mL) as the internal standard. The samples were vortexed for 5 min. After centrifugation (12000×g for 10 min), the supernatants were transferred, and aliquots of 20 μL were injected into the HPLC-MS/MS system for analysis.
CK (10–100 μM) and a single CYP isoform-specific substrate (with a concentration similar to its corresponding Kmvalue) were used to determine the inhibitory effect of CK on specific CYP isoforms as described in detail previously. Substrates including phenacetin, coumarin, tolbutamide, metoprolol, chlorzoxazone, S-Mephenytoin, and midazolam were used at concentrations of 10, 5, 100, 7.5, 40, 100, and 5 μM, respectively. All incubation conditions were the same as mentioned above. The inhibitory effects on the CYP isoforms were investigated individually by incubating the HLMs in the absence or presence of CK. […]

T1 sequence (P10635 whole entry): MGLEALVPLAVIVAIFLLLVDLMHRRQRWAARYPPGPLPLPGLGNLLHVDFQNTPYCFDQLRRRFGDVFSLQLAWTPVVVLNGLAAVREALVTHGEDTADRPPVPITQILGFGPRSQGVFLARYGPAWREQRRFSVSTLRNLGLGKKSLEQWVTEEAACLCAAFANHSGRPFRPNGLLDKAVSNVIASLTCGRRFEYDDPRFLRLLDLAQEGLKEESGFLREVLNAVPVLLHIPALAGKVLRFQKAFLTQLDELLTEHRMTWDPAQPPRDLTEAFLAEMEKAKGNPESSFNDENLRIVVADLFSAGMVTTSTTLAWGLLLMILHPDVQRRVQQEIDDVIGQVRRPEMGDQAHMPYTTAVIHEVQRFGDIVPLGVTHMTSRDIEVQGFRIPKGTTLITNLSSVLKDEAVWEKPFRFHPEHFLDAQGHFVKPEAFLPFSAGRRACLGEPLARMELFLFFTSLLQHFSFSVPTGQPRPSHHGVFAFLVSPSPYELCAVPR
Sequence of CYP3A4 (P08684 whole entry, canonical isoform): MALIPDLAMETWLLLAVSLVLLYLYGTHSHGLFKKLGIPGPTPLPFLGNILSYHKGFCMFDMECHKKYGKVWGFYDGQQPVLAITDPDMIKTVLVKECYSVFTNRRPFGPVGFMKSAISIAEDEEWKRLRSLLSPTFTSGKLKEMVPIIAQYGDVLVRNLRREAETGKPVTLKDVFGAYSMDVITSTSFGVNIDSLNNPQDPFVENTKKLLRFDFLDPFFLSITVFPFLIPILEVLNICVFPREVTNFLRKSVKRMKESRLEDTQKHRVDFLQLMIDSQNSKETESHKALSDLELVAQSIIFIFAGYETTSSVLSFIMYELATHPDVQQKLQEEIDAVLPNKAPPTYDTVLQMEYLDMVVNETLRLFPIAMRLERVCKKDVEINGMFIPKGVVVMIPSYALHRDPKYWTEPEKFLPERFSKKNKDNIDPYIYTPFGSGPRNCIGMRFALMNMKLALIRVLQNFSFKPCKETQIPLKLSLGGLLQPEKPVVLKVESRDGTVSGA
Sequence of CYP2C9 (P11712 whole entry): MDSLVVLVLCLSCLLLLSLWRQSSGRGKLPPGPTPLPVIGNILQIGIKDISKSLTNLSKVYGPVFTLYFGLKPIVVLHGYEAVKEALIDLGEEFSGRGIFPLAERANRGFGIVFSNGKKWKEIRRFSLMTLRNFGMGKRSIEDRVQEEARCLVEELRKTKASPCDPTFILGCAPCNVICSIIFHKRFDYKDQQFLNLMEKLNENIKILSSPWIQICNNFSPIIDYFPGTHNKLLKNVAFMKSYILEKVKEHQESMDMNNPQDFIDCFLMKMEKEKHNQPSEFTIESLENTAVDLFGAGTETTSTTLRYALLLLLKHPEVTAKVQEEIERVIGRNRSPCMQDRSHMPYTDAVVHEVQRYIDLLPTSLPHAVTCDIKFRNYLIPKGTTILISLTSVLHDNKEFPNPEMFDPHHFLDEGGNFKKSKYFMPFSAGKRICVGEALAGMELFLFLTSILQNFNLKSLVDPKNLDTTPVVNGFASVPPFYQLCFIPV

## CC(C)=CCC[C@](C)(OC1O[C@H](CO)[C@@H](O)[C@H](O)[C@H]1O)[C@H]1CC[C@]2(C)[C@@H]1[C@H](O)C[C@@H]1[C@@]3(C)CC[C@H](O)C(C)(C)[C@@H]3CC[C@]12C (stereo partly drawn) [CK, 20-O-β-(D-glucopyranosyl)-20(S)-protopanaxadiol]
CYP3A4
  metabolic clearance rate (MCR) of CK, of that of the control: 74.6±28.1% and 74.6%
CYP2C9
  MCR of CK, of that of the control: 22.0%
CYP2D6; HLMs, CK 10–100 μM
  inhibitory effect on the activity of CYP2D6: minimal; also recorded: negligible
CYP2D6; HLMs, metoprolol 7.5 μM, CK 10–100 μM
  IC50: > 100 µM
CYP2D6; classified by IC50 according to Kong et al
  inhibitor potency class for CYP2D6: weak (weak, if IC50≥100 μg/mL or ≥50 μM)
